Experimental findings from patent US5286729A, “Angiotensin II receptor blocking 2,3,6 substituted quinazolinones” (American Cyanamid Company, priority 1993, dated 1994) are described below.

The target of this assay is T1, Angiotensin II Receptor (Bos taurus, UniProt P25104).
T1 construct: The brownish tissue forming the adrenal cortex is scraped off and finely minced with scissors before homogenization; from tissue; host or cells: beef adrenal cortex, microsomal (100,000 x g) membranes; adrenals from a local slaughter house (Maxwell-Cohen)
T1 sequence (P25104 1-359): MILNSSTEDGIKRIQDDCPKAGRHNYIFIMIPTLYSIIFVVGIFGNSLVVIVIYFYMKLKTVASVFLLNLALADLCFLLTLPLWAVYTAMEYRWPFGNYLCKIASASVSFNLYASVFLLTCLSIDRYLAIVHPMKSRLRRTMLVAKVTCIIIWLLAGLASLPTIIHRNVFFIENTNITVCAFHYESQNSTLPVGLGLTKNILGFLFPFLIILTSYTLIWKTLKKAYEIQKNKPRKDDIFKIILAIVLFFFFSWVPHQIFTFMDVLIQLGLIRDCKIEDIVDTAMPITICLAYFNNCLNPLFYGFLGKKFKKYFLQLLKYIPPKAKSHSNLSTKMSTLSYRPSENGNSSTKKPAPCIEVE
Put plainly: Receptor Binding Assay, binding of [125I](Sar1,Ile8)AngII to beef adrenal cortex membranes. The note with it: radioligand; non-specific binding with 1.0 uM unlabeled (Sar1,Ile8)AngII. The text has this: Beef adrenals are obtained from a local slaughter house (Maxwell-Cohen). [^125 I](Sar^1,Ile^8)AngII, S.A. 2200 Ci/mmole, is purchased from Dupont (NEN®, Boston, Mass.).
Approximately sixteen (16) to twenty (20) beef adrenal glands are processed as follows: fresh adrenal glands received on crushed ice are cleaned of fatty tissues and the tough membranes encapsulating the glands are removed and discarded. The brownish tissue forming the adrenal cortex is scraped off and finely minced with scissors before homogenization. Care is taken to avoid contamination with medullary tissue during dissection. The scraped cortices are suspended in twenty volumes of an ice-cold buffer medium consisting of 10 mM Tris.HCl (pH 7.4 at 22° C.) and containing 1.0 mM EDTA and 0.2M sucrose. Unless otherwise indicated, all subsequent operations are done at 4° C. […] The homogenate is centrifuged first at low speed (3,000×g) for 10 min. […] The pelleted membrane is reconstituted in 50.0 mM Tris.HCl buffer containing 0.1 mM of phenylmethylsulfonyl fluoride (PMSF) to give approximately a protein concentration of 2.5 mg per ml of tissue suspension. The membrane preparation is finally aliquoted in 1.0 ml volumes and stored at -70° C. until use in the binding assays. […]

As to “[^125 I](Sar^1, Ile^8) AngII [reference compound]”, the Specific binding entry is “greater than 90%”.
